The values below come from ChEMBL document CHEMBL1135196, “4-Aminoarylguanidine and 4-aminobenzamidine derivatives as potent and selective urokinase-type plasminogen activator inhibitors” (Bioorg Med Chem Lett, 2002).

The structures appear in SMILES notation. Where only a bound is given, the exact number is not on record here.

Assay [1] concerns the target T1, Coagulation factor X (Homo sapiens, UniProt P00742). In words: The compound was evaluated to inhibit the Coagulation factor X.
In assay [2] the target is Plasminogen (Homo sapiens, UniProt P00747). Nature of the assay: Inhibition of plasmin.
Sequence of Plasminogen (P00747 97-580 limits assumed): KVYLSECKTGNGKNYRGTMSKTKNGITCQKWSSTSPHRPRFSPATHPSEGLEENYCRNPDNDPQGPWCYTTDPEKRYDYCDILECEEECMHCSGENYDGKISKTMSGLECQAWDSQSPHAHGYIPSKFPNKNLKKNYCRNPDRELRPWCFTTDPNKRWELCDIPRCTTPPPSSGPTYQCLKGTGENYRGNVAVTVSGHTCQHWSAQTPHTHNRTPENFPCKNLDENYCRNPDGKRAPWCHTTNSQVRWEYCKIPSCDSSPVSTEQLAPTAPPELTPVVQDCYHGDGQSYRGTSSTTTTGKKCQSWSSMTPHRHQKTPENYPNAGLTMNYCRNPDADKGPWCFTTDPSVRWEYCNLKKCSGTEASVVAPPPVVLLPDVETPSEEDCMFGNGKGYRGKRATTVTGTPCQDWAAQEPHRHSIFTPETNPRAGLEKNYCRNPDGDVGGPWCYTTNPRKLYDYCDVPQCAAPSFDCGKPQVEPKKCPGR
Sequence of Plasminogen (P00747 581-810 limits assumed): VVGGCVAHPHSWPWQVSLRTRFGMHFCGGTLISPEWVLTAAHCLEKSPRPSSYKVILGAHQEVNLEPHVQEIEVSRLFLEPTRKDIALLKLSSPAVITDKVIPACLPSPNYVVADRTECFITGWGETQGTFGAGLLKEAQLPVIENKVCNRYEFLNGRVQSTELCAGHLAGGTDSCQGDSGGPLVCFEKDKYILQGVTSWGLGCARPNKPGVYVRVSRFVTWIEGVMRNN
Assay [3] concerns the target Prothrombin (Homo sapiens, UniProt P00734). Nature of the assay: Inhibition of thrombin.
Assay [4] has as its target T2, Tissue-type plasminogen activator (Homo sapiens, UniProt P00750). Nature of the assay: Activation of plasminogen.
The target of assay [5] is Urokinase-type plasminogen activator (Homo sapiens, UniProt P00749).
Description: Inhibition of urokinase-type plasminogen activator (microPa)
In assay [6] the target is T1, Coagulation factor X. Nature of the assay: Inhibition of coagulation factor X.
Assay [7] deals with T2, Tissue-type plasminogen activator. Nature of the assay: Activation of tissue plasminogen.

T2 sequence (P00750 whole entry): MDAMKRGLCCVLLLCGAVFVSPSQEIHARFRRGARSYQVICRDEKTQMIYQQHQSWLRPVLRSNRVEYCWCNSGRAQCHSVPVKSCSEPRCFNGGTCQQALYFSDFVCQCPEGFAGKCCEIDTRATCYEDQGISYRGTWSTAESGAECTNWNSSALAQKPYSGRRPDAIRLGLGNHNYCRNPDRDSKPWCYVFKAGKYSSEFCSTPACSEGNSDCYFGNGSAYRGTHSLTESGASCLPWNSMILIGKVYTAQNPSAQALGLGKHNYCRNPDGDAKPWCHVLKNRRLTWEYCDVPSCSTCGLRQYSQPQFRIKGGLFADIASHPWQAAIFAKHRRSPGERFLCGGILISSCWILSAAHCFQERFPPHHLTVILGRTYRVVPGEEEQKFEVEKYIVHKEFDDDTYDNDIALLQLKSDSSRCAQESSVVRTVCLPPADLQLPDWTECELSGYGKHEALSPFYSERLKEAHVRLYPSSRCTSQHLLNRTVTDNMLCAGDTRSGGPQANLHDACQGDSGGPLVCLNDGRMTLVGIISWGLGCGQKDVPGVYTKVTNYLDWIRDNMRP
T1 sequence (P00742 41-179 limits assumed): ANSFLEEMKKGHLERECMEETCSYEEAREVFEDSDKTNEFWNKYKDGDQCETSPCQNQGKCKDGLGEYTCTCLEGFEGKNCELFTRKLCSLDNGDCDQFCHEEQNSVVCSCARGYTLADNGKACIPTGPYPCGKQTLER
T1 sequence (P00742 235-488 limits assumed): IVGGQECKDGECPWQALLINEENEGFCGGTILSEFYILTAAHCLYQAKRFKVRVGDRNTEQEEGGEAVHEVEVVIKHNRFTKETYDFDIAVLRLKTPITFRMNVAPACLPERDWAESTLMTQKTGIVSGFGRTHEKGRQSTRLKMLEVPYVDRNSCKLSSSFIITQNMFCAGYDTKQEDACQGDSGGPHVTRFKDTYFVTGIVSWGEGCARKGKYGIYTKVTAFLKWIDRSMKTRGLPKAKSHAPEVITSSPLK

As a reminder, the Ki is a dissociation constant, usually derived from enzyme kinetics or from competition with a known ligand. Turning to `N=C(N)c1ccc(NC(=O)c2ccc(Cl)cc2O)cc1`, the Ki in assay [1] came out at 2.8 µM; in assay [2], 27 µM; in assay [3], 9.5 µM; in assay [4], 2.4 µM; in assay [5] it was 6 µM.

Turning to `NC(N)=Nc1ccc(NC(=O)c2cccc(-c3ccccc3)c2O)cc1`, the Ki in assay [6] was over 470 µM; in assay [3], over 450 µM; in assay [7], over 95 µM.

For the compound `N=C(N)c1ccc(NC(=O)c2cccc(-c3ccccc3)c2O)cc1`, the Ki in assay [6] was found to be 188 µM; in assay [3], 120 µM; in assay [4], 53 µM; in assay [5] it was 8.5 µM.

On to `NC(N)=Nc1ccc(NC(=O)c2ccc(Cl)cc2O)cc1`, for which the inhibitory constant (Ki) in assay [6] is over 470 µM; in assay [3], over 450 µM; in assay [7] it was over 95 µM.

For `Cc1cc(I)c(O)c(C(=O)Nc2ccc(C(=N)N)c(F)c2)c1`, the results for the inhibitory constant (Ki) in assay [6] and in assay [4] were 0.52 µM and 1.7 µM, respectively.

Take `NC(N)=Nc1ccc(NC(=O)c2cccc(Cl)c2O)cc1`: the Ki was 470 µM in assay [6], over 450 µM in assay [3] and over 95 µM in assay [7].

Take `NC(N)=Nc1ccc(NC(=O)c2ccccc2O)cc1`: the Ki in assay [6] is 104 µM; in assay [2] it was over 75 µM; in assay [3] it was over 450 µM; in assay [4], over 95 µM.

As for `N=C(N)c1ccc(NC(=O)c2cccc(Cl)c2O)cc1`, the inhibition constant (Ki) in assay [6] amounted to 1 µM; in assay [3], 1 µM; in assay [4], 1.5 µM; in assay [5], 0.6 µM.

For `CC(C)Oc1c(O)c(C(=O)Nc2ccc(NC(=N)N)cc2)cc2ccccc12`, the results for the Ki in assay [6], in assay [3] and in assay [7] were 240 µM, over 450 µM and over 563 µM, respectively.

For `Cc1cccc(C(=O)Nc2ccc(C(=N)N)cc2)c1O`, the Ki in assay [6] came to 5.7 µM; in assay [2] it was 18 µM; in assay [3], 8 µM; in assay [4], 3.9 µM; in assay [5], 1.7 µM.

With `CCOc1ccc(C(=O)Nc2ccc(C(=N)N)cc2)c(O)c1`, the Ki in assay [1] was found to be 37 µM; in assay [3], 34 µM; in assay [4], 2 µM; in assay [5], 0.65 µM.

Turning to `Cc1cccc(C(=O)Nc2ccc(NC(=N)N)cc2)c1O`, the results for the Ki in assay [6], in assay [3] and in assay [7] were 350 µM, over 450 µM and over 95 µM, respectively.

As for `N=C(N)Nc1ccc(NC(=O)c2cc3ccccc3c(I)c2O)cn1`, the Ki in assay [6] was 68 µM; in assay [2], over 75 µM; in assay [3], 310 µM.

As to `N=C(N)Nc1ccc(NC(=O)c2cc3ccccc3c(I)c2O)cc1`, the inhibition constant Ki in assay [6] is over 470 µM; in assay [2], over 75 µM; in assay [3], over 450 µM; in assay [7] it was over 95 µM.

As to `Cc1cc(Br)c(O)c(C(=O)Nc2ccc(C(=N)N)cc2)c1`, the Ki in assay [6] is 0.44 µM; in assay [3], 0.28 µM; in assay [4], 0.36 µM.

Consider `COc1ccc(O)c(C(=O)Nc2ccc(C(=N)N)cc2)c1`, for which the Ki stood at 5.2 µM in assay [1], 12 µM in assay [3], 9.4 µM in assay [4] and 3.1 µM in assay [5].

`NC(N)=Nc1ccc(NC(=O)c2cc(Br)ccc2O)cc1`: the Ki in assay [6] was over 470 µM; in assay [3], over 450 µM; in assay [4] it was over 95 µM.

For the compound `N=C(N)c1ccc(NC(=O)c2cc(Br)ccc2O)cc1`, the Ki in assay [1] amounted to 15 µM; in assay [3], 29 µM; in assay [4], 21 µM.

For `Cc1ccc(O)c(C(=O)Nc2ccc(C(=N)N)cc2)c1`, the Ki was 9.4 µM in assay [1], 14 µM in assay [3], 6.9 µM in assay [4] and 2.6 µM in assay [5].

As for `N=C(N)c1ccc(NC(=O)c2cc([N+](=O)[O-])ccc2O)cc1`, the inhibition constant Ki in assay [1] stood at 99 µM; in assay [3] it was 185 µM; in assay [4], 94 µM; in assay [5], 44 µM.

For the compound `[H]/N=C(/N)c1ccc(NC(=O)c2cc(C)cc(I)c2O)cc1Cl`, the Ki in assay [6] was found to be 115 µM; in assay [3], 245 µM; in assay [4], 256 µM.

Take `CCOc1ccc(C(=O)Nc2ccc(NC(=N)N)cc2)c(O)c1`: the Ki in assay [6] was over 470 µM; in assay [2], over 75 µM; in assay [3], over 450 µM; in assay [7] it was over 95 µM; in assay [5], 10 µM.

Turning to `N=C(N)Nc1ccc(NC(=O)c2cc3ccccc3c(Br)c2O)cc1`, the Ki in assay [6] is over 470 µM; in assay [2] it was over 75 µM; in assay [3] it was over 450 µM; in assay [7] it was over 95 µM.

`Cc1ccc(C(=O)Nc2ccc(C(=N)N)cc2)c(O)c1`: the Ki in assay [6] came out at 2.3 µM; in assay [2], 6 µM; in assay [3] it was 10 µM; in assay [4], 3.6 µM; in assay [5], 1 µM.

As to `Cc1cc(I)c(O)c(C(=O)Nc2ccc(C(=N)N)cc2)c1`, the Ki was 0.46 µM in assay [6], 0.29 µM in assay [2], 0.38 µM in assay [3] and 0.24 µM in assay [4].

Take `Cc1cc(I)c(O)c(C(=O)Nc2ccc(NC(=N)N)cc2)c1`: the Ki was over 470 µM in assay [6]; over 75 µM in assay [2]; over 450 µM in assay [3]; over 563 µM in assay [7]; 8.5 µM in assay [5].

Take `Cc1ccc(C(=O)Nc2ccc(NC(=N)N)cc2)c(O)c1`: the Ki was over 470 µM in assay [6], over 450 µM in assay [3] and over 95 µM in assay [7].

Regarding `N=C(N)Nc1ccc(NC(=O)c2cc([N+](=O)[O-])ccc2O)cc1`, the Ki is over 470 µM in assay [6], 315 µM in assay [3], over 95 µM in assay [4] and over 75 µM in assay [5].

As to `COc1ccc(O)c(C(=O)Nc2ccc(NC(=N)N)cc2)c1`, the Ki in assay [6] was over 470 µM; in assay [3], over 450 µM; in assay [7], over 95 µM; in assay [5], 20 µM.

On to `Cc1cc(Br)c(O)c(C(=O)Nc2ccc(NC(=N)N)cc2)c1`, for which the inhibitory constant (Ki) in assay [6] amounted to 151 µM; in assay [2], 205 µM; in assay [3], 125 µM; in assay [7], 258 µM.

With `N=C(N)Nc1ccc(NC(=O)c2cc3ccccc3c(Br)c2O)cn1`, the inhibitory constant (Ki) in assay [6] was 235 µM; in assay [2] it was over 75 µM; in assay [3], 330 µM.

In the case of `N=C(N)c1ccc(NC(=O)c2ccccc2O)cc1`, the Ki in assay [1] amounted to 12 µM; in assay [2], 90 µM; in assay [3], 22 µM; in assay [7], 10 µM; in assay [5] it was 2.7 µM.

Turning to `Cc1ccc(O)c(C(=O)Nc2ccc(NC(=N)N)cc2)c1`, the Ki in assay [6] is over 470 µM; in assay [2] it was over 75 µM; in assay [3], over 450 µM; in assay [4] it was over 95 µM.
